Literature values as cited in article PMC10275055, “Preventing recurrence in Sonic Hedgehog Subgroup Medulloblastoma using the OLIG2 inhibitor CT-179” (Research Square, 2023).

System: OLIG2 dimerization and DNA binding
Design: method as in PMID 26517684, PMID 31953259
Details: cited from earlier work

## CCN1CCCC(Nc2cc(C)nc(/N=C(\N)Nc3ccc(Cl)c(Cl)c3)n2)C1 (stereo not shown) [SKOG102]
  effect on OLIG2 dimerization and DNA binding: disrupts OLIG2 dimerization and DNA binding
